# Assay results published in ChEMBL document CHEMBL1201862, “PubChem BioAssay data set” (2004).
#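 Growth conditions: 96-well plates. Treatment: test compound, 48 hours, 5 concentrations. Analysis: linear interpolation between bracketing concentrations; unreached endpoints set to highest concentration. GI50 is the concentration that inhibits growth by half.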 The source made the active and inactive calls. No stated cut-off is given here; in the data, active = GI50 up to about 1.1 µM and inactive = higher.
# What was measured:
# Test in all cases: inhibition of tumour cell growth, NCI panel, 48 h
# KM12 = tested on: KM12
# HCT-116 = tested on: HCT-116
# PC-3 = tested on: PC-3
# HL-60 = tested on: HL-60
# SF-268 = tested on: SF-268
# MDA-N = tested on: MDA-N
# SNB-19 = tested on: SNB-19
# RPMI-8226 = tested on: RPMI-8226
# MDA-MB-231 = tested on: MDA-MB-231
# RXF 393 = tested on: RXF 393
# HOP-92 = tested on: HOP-92
# ACHN = tested on: ACHN
# HOP-62 = tested on: HOP-62
# Malme-3M = tested on: Malme-3M
# SW-620 = tested on: SW-620
# BT-549 = tested on: BT-549
# CCRF-CEM = tested on: CCRF-CEM
# EKVX = tested on: EKVX
# OVCAR-4 = tested on: OVCAR-4
# SNB-75 = tested on: SNB-75
# UO-31 = tested on: UO-31
# NCI-H23 = tested on: NCI-H23
# CAKI-1 = tested on: CAKI-1
# MCF7 = tested on: MCF7
# MDA-MB-435 = tested on: MDA-MB-435
# SK-MEL-2 = tested on: SK-MEL-2
# A549 = tested on: A549
# OVCAR-8 = tested on: OVCAR-8
# HT-29 = tested on: HT-29
# OVCAR-5 = tested on: OVCAR-5
# NCI-H226 = tested on: NCI-H226
# 786-0 = tested on: 786-0
# HCT-15 = tested on: HCT-15
# A498 = tested on: A498
# HCC 2998 = tested on: HCC 2998
# K562 = tested on: K562
# T47D = tested on: T47D
# TK-10 = tested on: TK-10
# UACC-62 = tested on: UACC-62
# NCI-H460 = tested on: NCI-H460
# NCI/ADR-RES = tested on: NCI/ADR-RES
# DU-145 = tested on: DU-145
# COLO 205 = tested on: COLO 205
# LOX IMVI = tested on: LOX IMVI
# SF-539 = tested on: SF-539
# SK-OV-3 = tested on: SK-OV-3
# UACC-257 = tested on: UACC-257
# SN12C = tested on: SN12C
# OVCAR-3 = tested on: OVCAR-3
# SK-MEL-28 = tested on: SK-MEL-28
# U-251 = tested on: U-251
# M14 = tested on: M14
# SK-MEL-5 = tested on: SK-MEL-5
# MOLT-4 = tested on: MOLT-4
# SF-295 = tested on: SF-295
# Hs-578T = tested on: Hs-578T
# NCI-H522 = tested on: NCI-H522
# IGROV-1 = tested on: IGROV-1
smiles,measurement,setting,value
CCOC(=O)C(C)c1nc2cc(C(F)(F)F)ccc2[nH]c1=O (centres undefined),GI50,KM12,> 100 µM (inactive)
same,GI50,HCT-116,88.9 µM (inactive)
same,GI50,PC-3,49 µM (inactive)
same,GI50,HL-60,62.7 µM (inactive)
same,GI50,SF-268,> 100 µM (inactive)
same,GI50,MDA-N,> 100 µM (inactive)
same,GI50,SNB-19,> 100 µM (inactive)
same,GI50,RPMI-8226,51.9 µM (inactive)
same,GI50,MDA-MB-231,> 100 µM (inactive)
same,GI50,RXF 393,> 100 µM (inactive)
same,GI50,HOP-92,71.1 µM (inactive)
same,GI50,ACHN,> 100 µM (inactive)
same,GI50,HOP-62,> 100 µM (inactive)
same,GI50,Malme-3M,> 100 µM (inactive)
same,GI50,SW-620,> 100 µM (inactive)
same,GI50,BT-549,> 100 µM (inactive)
same,GI50,CCRF-CEM,> 100 µM (inactive)
same,GI50,EKVX,46.5 µM (inactive)
same,GI50,OVCAR-4,81.5 µM (inactive)
same,GI50,SNB-75,> 100 µM (inactive)
same,GI50,UO-31,> 100 µM (inactive)
same,GI50,NCI-H23,81.7 µM (inactive)
same,GI50,CAKI-1,> 100 µM (inactive)
same,GI50,MCF7,> 100 µM (inactive)
same,GI50,MDA-MB-435,> 100 µM (inactive)
same,GI50,SK-MEL-2,> 100 µM (inactive)
same,GI50,A549,> 100 µM (inactive)
same,GI50,OVCAR-8,> 100 µM (inactive)
same,GI50,HT-29,> 100 µM (inactive)
same,GI50,OVCAR-5,> 100 µM (inactive)
same,GI50,NCI-H226,> 100 µM (inactive)
same,GI50,786-0,> 100 µM (inactive)
same,GI50,HCT-15,> 100 µM
same,GI50,A498,64.3 µM (inactive)
same,GI50,HCC 2998,> 100 µM (inactive)
same,GI50,K562,59.8 µM (inactive)
same,GI50,T47D,15.4 µM (inactive)
same,GI50,TK-10,> 100 µM (inactive)
same,GI50,UACC-62,> 100 µM (inactive)
same,GI50,NCI-H460,> 100 µM (inactive)
same,GI50,NCI/ADR-RES,47.8 µM (inactive)
same,GI50,DU-145,84.5 µM (inactive)
same,GI50,COLO 205,> 100 µM (inactive)
same,GI50,LOX IMVI,> 100 µM (inactive)
same,GI50,SF-539,> 100 µM (inactive)
same,GI50,SK-OV-3,> 100 µM (inactive)
same,GI50,UACC-257,69.8 µM (inactive)
same,GI50,SN12C,> 100 µM (inactive)
same,GI50,OVCAR-3,82 µM (inactive)
same,GI50,SK-MEL-28,> 100 µM (inactive)
same,GI50,U-251,> 100 µM (inactive)
same,GI50,M14,> 100 µM (inactive)
same,GI50,SK-MEL-5,42.2 µM (inactive)
same,GI50,MOLT-4,85.5 µM (inactive)
same,GI50,SF-295,49.2 µM (inactive)
same,GI50,Hs-578T,> 100 µM (inactive)
O[C@@]1(c2cccs2)c2cccc(Cl)c2[C@](O)(c2cccs2)c2cccc(Cl)c21,GI50,KM12,16.4 µM (inactive)
same,GI50,HCT-116,13.2 µM (inactive)
same,GI50,PC-3,19.1 µM (inactive)
same,GI50,HL-60,16.6 µM (inactive)
same,GI50,NCI-H522,18.2 µM (inactive)
same,GI50,SF-268,19.8 µM (inactive)
same,GI50,MDA-N,16.8 µM (inactive)
same,GI50,SNB-19,26.7 µM (inactive)
same,GI50,RPMI-8226,22 µM (inactive)
same,GI50,MDA-MB-231,17.3 µM (inactive)
same,GI50,RXF 393,16.3 µM (inactive)
same,GI50,HOP-92,67.9 µM (inactive)
same,GI50,ACHN,17 µM (inactive)
same,GI50,HOP-62,26.1 µM (inactive)
same,GI50,Malme-3M,17.8 µM (inactive)
same,GI50,SW-620,17.3 µM (inactive)
same,GI50,BT-549,19.2 µM (inactive)
same,GI50,CCRF-CEM,33.3 µM (inactive)
same,GI50,EKVX,16.8 µM (inactive)
same,GI50,OVCAR-4,18.2 µM (inactive)
same,GI50,SNB-75,> 100 µM (inactive)
same,GI50,UO-31,46.7 µM (inactive)
same,GI50,NCI-H23,18.1 µM (inactive)
same,GI50,CAKI-1,24.4 µM (inactive)
same,GI50,IGROV-1,16.3 µM (inactive)
same,GI50,MCF7,18.5 µM (inactive)
same,GI50,MDA-MB-435,17.2 µM (inactive)
same,GI50,SK-MEL-2,18.2 µM (inactive)
same,GI50,A549,14.9 µM (inactive)
same,GI50,OVCAR-8,55.7 µM (inactive)
same,GI50,HT-29,17.2 µM (inactive)
same,GI50,OVCAR-5,16.2 µM (inactive)
same,GI50,NCI-H226,22.1 µM (inactive)
same,GI50,786-0,16.4 µM (inactive)
same,GI50,HCT-15,21.2 µM
same,GI50,A498,12.6 µM (inactive)
same,GI50,HCC 2998,17.6 µM (inactive)
same,GI50,K562,25.5 µM (inactive)
same,GI50,T47D,32.9 µM (inactive)
same,GI50,TK-10,28.1 µM (inactive)
same,GI50,UACC-62,11 µM (inactive)
same,GI50,NCI-H460,16.9 µM (inactive)
same,GI50,NCI/ADR-RES,22.6 µM (inactive)
same,GI50,DU-145,24.7 µM (inactive)
same,GI50,COLO 205,19.5 µM (inactive)
same,GI50,LOX IMVI,16.4 µM (inactive)
same,GI50,SF-539,29.2 µM (inactive)
same,GI50,SK-OV-3,22.6 µM (inactive)
same,GI50,UACC-257,15.2 µM (inactive)
same,GI50,SN12C,17.9 µM (inactive)
same,GI50,OVCAR-3,16.3 µM (inactive)
same,GI50,SK-MEL-28,17.3 µM (inactive)
same,GI50,U-251,16.8 µM (inactive)
same,GI50,M14,15.4 µM (inactive)
same,GI50,SK-MEL-5,17.3 µM (inactive)
same,GI50,MOLT-4,15.9 µM (inactive)
same,GI50,SF-295,11.1 µM (inactive)
same,GI50,Hs-578T,12.8 µM (inactive)
